{"source": "patent US8580811B2", "about": "(Ligand Pharmaceuticals Incorporated, priority 2005, dated 2013)", "biological_target": "T1, human AR (Homo sapiens, UniProt P10275)", "T1 construct": "expressed in transfected cells; host or cells: COS-1 cells", "T1 sequence (P10275 1-920)": "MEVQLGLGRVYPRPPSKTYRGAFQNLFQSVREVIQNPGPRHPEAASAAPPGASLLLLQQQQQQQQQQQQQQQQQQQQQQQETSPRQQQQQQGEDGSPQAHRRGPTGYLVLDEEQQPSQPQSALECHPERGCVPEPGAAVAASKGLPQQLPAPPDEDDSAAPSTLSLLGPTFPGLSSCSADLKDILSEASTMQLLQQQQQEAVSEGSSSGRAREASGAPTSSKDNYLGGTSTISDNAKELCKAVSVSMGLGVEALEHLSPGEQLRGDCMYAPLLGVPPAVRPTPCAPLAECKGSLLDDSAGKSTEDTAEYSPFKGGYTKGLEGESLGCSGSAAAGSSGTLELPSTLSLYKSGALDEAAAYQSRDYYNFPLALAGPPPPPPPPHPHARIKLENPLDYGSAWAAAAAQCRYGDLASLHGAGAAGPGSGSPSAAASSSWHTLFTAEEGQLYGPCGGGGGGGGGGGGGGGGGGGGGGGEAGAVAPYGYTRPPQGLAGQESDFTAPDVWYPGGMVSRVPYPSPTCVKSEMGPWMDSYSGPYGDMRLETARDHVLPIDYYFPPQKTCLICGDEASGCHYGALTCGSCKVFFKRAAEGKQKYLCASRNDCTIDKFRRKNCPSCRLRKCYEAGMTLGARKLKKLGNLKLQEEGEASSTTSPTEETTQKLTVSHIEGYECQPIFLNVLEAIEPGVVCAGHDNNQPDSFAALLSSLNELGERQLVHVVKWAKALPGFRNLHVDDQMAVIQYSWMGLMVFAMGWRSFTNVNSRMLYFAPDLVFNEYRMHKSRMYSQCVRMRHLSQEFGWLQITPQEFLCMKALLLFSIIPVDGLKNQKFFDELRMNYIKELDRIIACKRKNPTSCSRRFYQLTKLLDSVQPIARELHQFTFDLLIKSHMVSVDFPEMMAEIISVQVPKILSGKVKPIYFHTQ", "assay": "IR Binding Assay: whole cell competitive binding of test compounds against 3H-DHT in COS-1 cells transfected with pRShAR", "experimental": "For the whole cell binding assay, COS-1 cells in 96-well microtiter plates including DMEM-10% FBS were transfected as described above with the following plasmid DNA: pRShAR (2 ng/well), pRS-β-Gal (50 ng/well) and pGEM (48 ng/well). Six hours after transfection, media was removed, the cells were washed with PBS and fresh media was added. The next day, the media was changed to DMEM-serum free to remove any endogenous ligand that might be complexed with the receptor in the cells.\nAfter 24 hours in serum-free media, either a saturation analysis to determine the Kd for tritiated dihydrotestosterone (^3H-DHT) on human AR or a competitive binding assay to evaluate the ability of test compounds to compete with ^3H-DHT for AR was performed. […] For the competitive binding assay, media including 1 nM ^3H-DHT and test compounds in concentrations ranging from 10^−10 to 10^−6 M were added to the cells. Three replicates were used for each sample. After three hours at 37° C., an aliquot of the total binding media at each concentration of ^3H-DHT was removed to estimate the amount of free ^3H-DHT. The remaining media was removed, the cells were washed three times with PBS to remove unbound ligand, and cells were lysed with a Triton X-100-based buffer. The lysates were assayed for amount of bound ^3H-DHT and β-Gal activity using a scintillation counter or spectrophotometer, respectively.\nFor the saturation analyses, the difference between the total binding and the nonspecific binding, normalized by the β-Gal rate, was defined as specific binding. The specific binding was evaluated by Scatchard analysis to determine the Kd for ^3H-DHT. See e.g., D. Rodbard, “Mathematics and statistics of ligand assays: an illustrated guide” In: J. Langon and J. J. Clapp, eds., Ligand Assay, Masson Publishing U.S.A., Inc., New York, pp. 45-99, (1981), the disclosure of which is herein incorporated by reference. For the competition studies, the data was plotted as the amount of ^3H-DHT (% of control in the absence of test compound) remaining over the range of the dose-response curve for a given compound. […] The Ki values were determined by application of the Cheng-Prusoff equation to the IC50 values, where:\n[formula] After correcting for non-specific binding, IC50 values were determined. […] The IC50 value was determined graphically from a log-logit plot of the data. The Ki values were determined by application of the Cheng-Prusoff equation to the IC50 values, the labeled ligand concentration and the Kd of the labeled ligand. see e.g., Cheng, Y. C. and Prusoff, W. H. Biochem. Pharmacol. 22:3099 (1973).", "note": "Where two headings read alike, the source gives them in different places."}
{"compound": "CC1c2c(ccc3[nH]c(=O)cc(Cl)c23)N(CC(F)(F)F)C1c1ccccc1", "note": "(racemic) [Compound 130, (±)-9-Chloro-1-methyl-2-phenyl-3-(2,2,2-trifluoro-ethyl)-1,2,3,6-tetrahydro-pyrrolo[3,2-f]-quinolin-7-one]", "values": [{"measurement": "Ki", "result": "5 to 10", "unit": "nM"}]}
{"compound": "Cc1[nH]c2ccc3[nH]c(=O)cc(Cl)c3c2c1C", "note": "[Compound 105, 9-Chloro-1,2-dimethyl-3,6-dihydro-pyrrolo[3,2-f]quinolin-7-one]", "values": [{"measurement": "Ki", "result": "< 5", "unit": "nM"}]}
{"compound": "Cc1c(C)n(CC(F)(F)F)c2ccc3[nH]c(=O)cc(Cl)c3c12", "note": "[Compound 184, 9-Chloro-1,2-dimethyl-3-(2,2,2-trifluoroethyl)-3,6-dihydro-pyrrolo[3,2-f]quinolin-7-one]", "values": [{"measurement": "Ki", "result": "< 5", "unit": "nM"}]}
{"compound": "CCOC(=O)c1[nH]c2ccc3[nH]c(=O)cc(Cl)c3c2c1C", "note": "[Compound 111, 9-Chloro-1-methyl-7-oxo-6,7-dihydro-3H-pyrrolo[3,2-f]quinoline-2-carboxylic acid ethyl ester]", "values": [{"measurement": "Ki", "setting": "competition with 1 nM 3H-DHT, transfected COS-1 cells, 3 h at 37° C., Cheng-Prusoff from IC50, read-out: Ki", "result": "> 10", "unit": "nM"}]}
{"compound": "Cc1c(CCCCl)c2c3c(Cl)cc(=O)[nH]c3ccc2n1CC(F)(F)C(F)(F)F", "note": "[Compound 269, 9-Chloro-1-(3-chloropropyl)-2-methyl-3-(2,2,3,3,3-pentafluoropropyl)-3,6-dihydro-pyrrolo[3,2-f]quinolin-7-one]", "values": [{"measurement": "Ki", "result": "> 10", "unit": "nM"}]}
{"compound": "Cc1c(C(F)(F)F)[nH]c2ccc3[nH]c(=O)cc(Cl)c3c12", "note": "[Compound 108, 9-Chloro-1-methyl-2-trifluoromethyl-3,6-dihydro-pyrrolo[3,2-f]quinolin-7-one]", "values": [{"measurement": "Ki", "result": "< 5", "unit": "nM"}]}
{"compound": "CCC1C(C)c2c(ccc3[nH]c(=O)cc(Cl)c23)N1CC", "note": "(racemic) [Compound 166, (±)-9-Chloro-2,3-diethyl-1-methyl-1,2,3,6-tetrahydro-pyrrolo[3,2-f]quinolin-7-one]", "values": [{"measurement": "Ki", "result": "> 10", "unit": "nM"}]}
{"compound": "CCCc1c(C)n(CC(F)(F)F)c2ccc3[nH]c(=O)cc(Cl)c3c12", "note": "[Compound 210, 9-Chloro-2-methyl-1-propyl-3-(2,2,2-trifluoroethyl)-3,6-dihydro-pyrrolo[3,2-f]quinolin-7-one]", "values": [{"measurement": "Ki", "result": "< 5", "unit": "nM"}]}
{"compound": "O=c1cc(Cl)c2c3c(ccc2[nH]1)N(CC(F)(F)F)C1CCCCC31", "note": "(racemic) [Compound 133, (±)-9-Chloro-1,2-tetramethylene-3-(2,2,2-trifluoro-ethyl)-1,2,3,6-tetrahydro-pyrrolo[3,2-f]quinolin-7-one]", "values": [{"measurement": "Ki", "result": "< 5", "unit": "nM"}]}
{"compound": "CCn1c(C)c(C)c2c3c(Cl)cc(=O)[nH]c3ccc21", "note": "[Compound 196, 9-Chloro-1,2-dimethyl-3-ethyl-3,6-dihydro-pyrrolo[3,2-f]quinolin-7-one]", "values": [{"measurement": "Ki", "result": "< 5", "unit": "nM"}]}
{"compound": "CC1c2c(ccc3[nH]c(=O)cc(C(F)(F)F)c23)N(CC(F)(F)Cl)C1C", "note": "(racemic) [Compound 175, (±)-3-(2-Chloro-2,2-difluoroethyl)-1,2-dimethyl-9-trifluoromethyl-1,2,3,6-tetrahydro-pyrrolo[3,2-f]quinolin-7-one]", "values": [{"measurement": "Ki", "result": "< 5", "unit": "nM"}]}
{"compound": "C=C(C)Cn1c(C)c(C)c2c3c(C(F)(F)F)cc(=O)[nH]c3ccc21", "note": "[Compound 237, 1,2-Dimethyl-3-(2-methyl-allyl)-9-trifluoromethyl-3,6-dihydro-pyrrolo[3,2-f]quinolin-7-one]", "values": [{"measurement": "Ki", "result": "< 5", "unit": "nM"}]}
{"compound": "Cc1c(-c2cccs2)n(C[C@H](O)C(F)(F)F)c2ccc3[nH]c(=O)cc(Cl)c3c12", "note": "[Compound 272, (S)-9-Chloro-1-methyl-2-thiophen-2-yl-3-(3,3,3-trifluoro-2-hydroxy-propyl)-3,6-dihydro-pyrrolo[3,2-f]quinolin-7-one]", "values": [{"measurement": "Ki", "result": "< 5", "unit": "nM"}]}
{"compound": "Cc1c(-c2cccc(Br)c2)n(CC(F)(F)F)c2ccc3[nH]c(=O)cc(Cl)c3c12", "note": "[Compound 198, 2-(3-Bromophenyl)-9-Chloro-1-methyl-3-(2,2,2-trifluoroethyl)-3,6-dihydro-pyrrolo[3,2-f]-quinolin-7-one]", "values": [{"measurement": "Ki", "result": "> 10", "unit": "nM"}]}
{"compound": "Cc1c(C(F)(F)C(F)(F)F)n(CC(F)(F)F)c2ccc3[nH]c(=O)cc(Cl)c3c12", "note": "[Compound 255, 9-Chloro-1-methyl-2-(pentafluoroethyl)-3-(2,2,2-trifluoroethyl)-3,6-dihydro-pyrrolo[3,2-f]-quinolin-7-one]", "values": [{"measurement": "Ki", "result": "< 5", "unit": "nM"}]}
{"compound": "CCC1c2c(ccc3[nH]c(=O)cc(Cl)c23)N(CC(F)(F)F)C1c1cccs1", "note": "(racemic) [Compound 164, (±)-9-Chloro-1-ethyl-2-(thien-2-yl)-3-(2,2,2-trifluoroethyl)-1,2,3,6-tetrahydro-pyrrolo[3,2-f]-quinolin-7-one]", "values": [{"measurement": "Ki", "result": "< 5", "unit": "nM"}]}
{"compound": "Cc1c(-c2cccnc2)n(CC(F)(F)F)c2ccc3[nH]c(=O)cc(Cl)c3c12", "note": "[Compound 253, 9-Chloro-1-methyl-2-(3-pyridyl)-3-(2,2,2-trifluoroethyl)-3,6-dihydro-pyrrolo[3,2-f]-quinolin-7-one]", "values": [{"measurement": "Ki", "result": "> 10", "unit": "nM"}]}
{"compound": "COc1ccc(C2C(C)c3c(ccc4[nH]c(=O)cc(Cl)c34)N2CC(F)(F)F)cc1", "note": "(racemic) [Compound 148, (±)-9-Chloro-2-(4-methoxy-phenyl)-1-methyl-3-(2,2,2-trifluoroethyl)-1,2,3,6-tetrahydro-pyrrolo[3,2-f]quinolin-7-one]", "values": [{"measurement": "Ki", "result": "5 to 10", "unit": "nM"}]}
{"compound": "Cc1c(C)n(CCO)c2ccc3[nH]c(=O)cc(C(F)(F)F)c3c12", "note": "[Compound 240, 1,2-Dimethyl-3-(2-hydroxyethyl)-9-trifluoromethyl-3,6-dihydro-pyrrolo[3,2-f]quinolin-7-one]", "values": [{"measurement": "Ki", "result": "> 10", "unit": "nM"}]}
{"compound": "Cc1c(-c2ccccc2)n(C[C@H](O)C(F)(F)F)c2ccc3[nH]c(=O)cc(Cl)c3c12", "note": "[Compound 271, (S)-9-Chloro-1-methyl-2-phenyl-3-(3,3,3-trifluoro-2-hydroxy-propyl)-3,6-dihydro-pyrrolo[3,2-f]quinolin-7-one]", "values": [{"measurement": "Ki", "result": "< 5", "unit": "nM"}]}
{"compound": "Cc1c(C)n(C[C@H](O)CO)c2ccc3[nH]c(=O)cc(C(F)(F)F)c3c12", "note": "[Compound 295, (S)-3-(2,3-dihydroxypropyl)-1,2-dimethyl-9-trifluoromethyl-3,6-dihydro-pyrrolo[3,2-f]-quinolin-7-one]", "values": [{"measurement": "Ki", "result": "> 10", "unit": "nM"}]}
{"compound": "Cc1c(C)n(C[C@@H](O)CO)c2ccc3[nH]c(=O)cc(Cl)c3c12", "note": "[Compound 292, (R)-9-Chloro-3-(2,3-dihydroxypropyl)-1,2-dimethyl-3,6-dihydro-pyrrolo[3,2-f]-quinolin-7-one]", "values": [{"measurement": "Ki", "result": "> 10", "unit": "nM"}]}
{"compound": "CCc1c(C)c2c3c(C(F)(F)F)cc(=O)[nH]c3ccc2n1CC(F)(F)C(F)(F)F", "note": "[Compound 225, 2-Ethyl-1-methyl-3-(2,2,3,3,3-pentafluoropropyl)-9-trifluoromethyl-3,6-dihydro-pyrrolo[3,2-f]-quinolin-7-one]", "values": [{"measurement": "Ki", "result": "< 5", "unit": "nM"}]}
{"compound": "Cc1c(C(F)(F)F)n(CC(F)(F)C(F)(F)F)c2ccc3[nH]c(=O)cc(Cl)c3c12", "note": "[Compound 260, 9-Chloro-1-methyl-3-(2,2,3,3,3-pentafluoropropyl)-2-(trifluoromethyl)-3,6-dihydro-pyrrolo[3,2-f]quinolin-7-one]", "values": [{"measurement": "Ki", "result": "> 10", "unit": "nM"}]}
{"compound": "Cc1c(-c2nccs2)n(CC(F)(F)C(F)(F)F)c2ccc3[nH]c(=O)cc(Cl)c3c12", "note": "[Compound 262, 9-Chloro-1-methyl-3-(2,2,3,3,3-pentafluoropropyl)-2-(1,3-thiazol-2-yl)-3,6-dihydro-pyrrolo[3,2-f]quinolin-7-one]", "values": [{"measurement": "Ki", "result": "5 to 10", "unit": "nM"}]}
